The record followed here is patent publication US20230265116A1, “DEGRADATION OF (EGFR) BY CONJUGATION OF EGFR INHIBITORS WITH E3 LIGASE LIGAND AND METHODS OF USE” (BEIGENE, LTD., priority 2020, published 2023).

Assay [1] concerns the target T1, EGFR L858R/T790M/C797S (BaF3-LTC cells) (Homo sapiens, UniProt P00533, C797S/L858R/T790M).
T1 construct: expressed in transfected cells; host or cells: BaF3
The assay can be described thus: EGFR degradation HTRF assay, BaF3-LTC cells. In kind it is cell-based. Here is the method:
(§1) BaF3 WT(wild type), BaF3-LTC(L858R/T790M/C797S) and BaF3-DTC(Del19/T790M/C797S) cells are treated with compounds diluted in 0.2% DMSO cell culture medium and incubate for 16h, 37° C., 5% CO2, H1975-#36, H1975-#28, H1975-#23 and HCC827 cells are treated with compounds diluted in 0.2% DMSO cell culture medium on day 2, incubate for 16h, 37° C., 5% CO2.the final concentriation of compounds in all assay is start with 10 uM, 5-fold dilution, total 8 doses were included.
(§2) After 16h treatment, add HTRF lysis buffer to each well; seal the plate and incubate 1 hour at room temperature on a plate shaker; Once the cells are lysed, 16 μL of cell lysate are transferred to a PE 384-well HTRF detection plate; 4 μL of pre-mixed HTRF antibodies are added to each well; Cover the plate with a plate sealer, spin 1000 rpm for 1 min, Incubate overnight at room temperature; Read on BMG PheraStar with HTRF protocol (337 nm-665 nm-620 nm).
(§3) The inhibition (degradation) percentage of the compound was calculated by the following equation: Inhibition percentage of Compound=100-100×(Signal-low control)/(High control-low control), wherein signal=each test compound group
(§4) High control=Cell group with added DMSO and without compound, indicating microplate readings without EGFR degradation;
(§5) Dmax is the maximum percentage of inhibition (degradation).
(§6) The IC50 (DC50) value of a compound can be obtained by fitting the following equation
(§7) Y=Bottom+(TOP−Bottom)/(1+((IC50/X)^hillslope))
(§8) Wherein, X and Y are known values, and IC50, Hillslope, Top and Bottom are the parameters obtained by fitting with software. Y is the inhibition percentage (calculated from the equation), X is the concentration of the compound; IC50 is the concentration of the compound when the 50% inhibition is reached. The smaller the IC50 value is, the stronger the inhibitory ability of the compound is. Vice versa, the higher the IC50 value is, the weaker the inhibitory ability of the compound is; Hillslope represents the slope of the fitted curve, generally around 1*; Bottom represents the minimum value of the curve obtained by data fitting, which is generally 0%±20%; Top represents the maximum value of the curve obtained by data fitting, which is generally 100%±20%. The experimental data were fitted by calculating and analyzing with Dotmatics data analysis software.
In general terms: In TR-FRET formats the signal depends on donor and acceptor labels being close together.

In assay [2] the test system is EGFR Del19/T790M/C797S (H1975-clone #28). The assay can be described thus: EGFR degradation HTRF assay, H1975-clone #28 DTC cells. The assay is classed as cell-based. Here is the method:
H1975-clone #28(Del19/T790M/C797S) and H1975-clone #23(Del19/C797S). EGFR-Del19/T790M/C797S and EGFR-Del19/C797S were stably expressed in H1975 cell lines by lentivirus-mediated over-expression, respectively. The EGFR over-expressed cells then underwent gene knockout, in which the EGFR targeting sgRNA was designed to only target the endogenous EGFR copies and preserve the exogenous EGFR copies. Followed by the gene knockout, the edited H1975 cells were seeded in 96 well plates at the concentration of 1 cell/well, cultured for about 2 weeks to allow single clones formation. The formed clones were screened by DNA sequencing and whole exon sequencing analysis for the desired edition. H1975-clone #28 and H1975-clone #23 were finally confirmed as homozygous Del19/T790M/C797S EGFR and Del19/C797S EGFR clones, respectively.
as §1, §2, §3, §4, §5, §6, §7, §8

Where [3] appears, read: read-out: DC50(nM) BaF3-LTC; BaF3-LTC cells; EGFR degradation, IC50 (DC50) from curve fit.
The mark [4] stands for this setting: read-out: Dmax (%) BaF3-LTC, BaF3-LTC cells; maximum percentage of inhibition (degradation).
Setting [5] is: H1975 # 28 DTC cells; maximum percentage of inhibition (degradation).
[6] abbreviates: read-out: DC50(nM) H1975 # 28 DTC; H1975 # 28 DTC cells; EGFR degradation, IC50 (DC50) from curve fit.
The mark [7] stands for this setting: BaF3-LTC cells; EGFR degradation, IC50 (DC50) from curve fit; read-out: DC50(nM) BaF3-LTC.
Setting [8] is: BaF3-LTC cells; maximum percentage of inhibition (degradation); read-out: Dmax (%) BaF3-LTC.
The mark [9] stands for this setting: H1975 # 28 DTC cells; EGFR degradation, IC50 (DC50) from curve fit; read-out: DC50(nM) H1975 # 28 DTC.

Where two headings read alike, the source gives them in different places.

T1 sequence (P00533 25-1210 T790M/C797S/L858R): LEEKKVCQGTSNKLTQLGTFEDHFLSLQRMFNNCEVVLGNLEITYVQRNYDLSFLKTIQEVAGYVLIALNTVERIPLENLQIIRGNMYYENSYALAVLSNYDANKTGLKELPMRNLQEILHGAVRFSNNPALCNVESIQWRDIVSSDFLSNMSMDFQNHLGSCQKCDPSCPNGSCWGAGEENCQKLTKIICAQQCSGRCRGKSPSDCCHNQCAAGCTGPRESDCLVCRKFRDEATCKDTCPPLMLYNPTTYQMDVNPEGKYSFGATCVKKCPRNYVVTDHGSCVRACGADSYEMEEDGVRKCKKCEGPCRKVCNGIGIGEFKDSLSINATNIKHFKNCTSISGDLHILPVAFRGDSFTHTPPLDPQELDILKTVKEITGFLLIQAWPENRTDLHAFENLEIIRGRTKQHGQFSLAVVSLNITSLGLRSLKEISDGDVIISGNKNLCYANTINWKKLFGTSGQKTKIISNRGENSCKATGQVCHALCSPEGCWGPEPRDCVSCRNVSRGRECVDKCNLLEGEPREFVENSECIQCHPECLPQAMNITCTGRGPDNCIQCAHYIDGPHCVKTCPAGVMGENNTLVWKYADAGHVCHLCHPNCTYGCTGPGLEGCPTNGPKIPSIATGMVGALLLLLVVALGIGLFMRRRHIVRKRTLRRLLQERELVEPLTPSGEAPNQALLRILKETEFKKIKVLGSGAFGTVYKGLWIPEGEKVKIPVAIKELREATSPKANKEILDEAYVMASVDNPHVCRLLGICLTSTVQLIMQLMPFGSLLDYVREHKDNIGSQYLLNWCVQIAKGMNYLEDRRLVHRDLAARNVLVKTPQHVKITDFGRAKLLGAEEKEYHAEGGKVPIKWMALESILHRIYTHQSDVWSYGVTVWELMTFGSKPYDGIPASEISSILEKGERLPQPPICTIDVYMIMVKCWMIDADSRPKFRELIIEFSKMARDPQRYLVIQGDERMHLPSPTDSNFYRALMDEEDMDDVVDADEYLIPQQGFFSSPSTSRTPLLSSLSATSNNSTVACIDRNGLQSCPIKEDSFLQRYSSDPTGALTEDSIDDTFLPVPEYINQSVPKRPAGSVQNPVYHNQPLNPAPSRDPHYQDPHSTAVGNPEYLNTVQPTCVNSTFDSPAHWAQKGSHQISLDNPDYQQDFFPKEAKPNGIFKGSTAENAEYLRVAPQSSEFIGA

On to `CCOc1cc(N2CCC(N3CCN(C(=O)[C@@H]4CCN(c5cccc6c5oc(=O)n6C5CCC(=O)NC5=O)C4)CC3)CC2)c(CC)cc1Nc1ncc(Br)c(Nc2ccc3nc(CC)ccc3c2P(C)(C)=O)n1` (stereo partly drawn) [Example 445, 3-(7-((R)-3-(4-(1-(4-((5-bromo-4-((5-(dimethylphosphoryl)-2-ethylquinolin-6-yl)amino)pyrimidin-2-yl)amino)-5-ethoxy-2-ethylphenyl)piperidin-4-yl)piperazine-1-carbonyl)pyrrolidin-1-yl)-2-oxobenzo[d]oxazol-3(2H)-yl)piperidine-2,6-dione], for which the DC50 (commonly the concentration giving 50% degradation) in assay [1] (setting [3]) came out at 5.24 nM; in assay [2] (setting [6]), 0.877 nM. Moreover, in assay [1] (setting [4]), the Dmax (in general, the largest share of the target that was removed) is 87.7%. For the same compound, the “Dmax (%) H1975 # 28 DTC” value in assay [2] (setting [5]) is recorded as 79.2%.
Regarding `CCc1ccc2c(P(C)(C)=O)c(Nc3nc(Nc4cc(CC)c(N5CCC(N6CCN(C(=O)C7CN(c8cc(F)cc9c8oc(=O)n9C8CCC(=O)NC8=O)C7)CC6)CC5)cc4OC)ncc3Br)ccc2n1` (stereo not shown) [Example 447, 3-(7-(3-(4-(1-(4-((5-bromo-4-((5-(dimethylphosphoryl)-2-ethylquinolin-6-yl)amino)pyrimidin-2-yl)amino)-2-ethyl-5-methoxyphenyl)piperidin-4-yl)piperazine-1-carbonyl)azetidin-1-yl)-5-fluoro-2-oxobenzo[d]oxazol-3(2H)-yl)piperidine-2,6-dione], the figures for the 50% degradation concentration (DC50) in assay [1] (setting [3]) and in assay [2] (setting [6]) were 2.27 nM and 0.526 nM, respectively. Also, the maximal degradation (Dmax) in assay [1] (setting [4]) came to 83.2%. In assay [2] (setting [5]), the “Dmax (%) H1975 # 28 DTC” value was 77.96%.
Consider `CCc1ccc2c(P(C)(C)=O)c(Nc3nc(Nc4cc(CC)c(N5CCC(N6CCN(CC7CN(c8cccc9c8oc(=O)n9C8CCC(=O)NC8=O)C7)CC6)CC5)cc4OC)ncc3Br)ccc2n1` (stereo not shown) [Example 448, 3-(7-(3-((4-(1-(4-((5-bromo-4-((5-(dimethylphosphoryl)-2-ethylquinolin-6-yl)amino)pyrimidin-2-yl)amino)-2-ethyl-5-methoxyphenyl)piperidin-4-yl)piperazin-1-yl)methyl)azetidin-1-yl)-2-oxobenzo[d]oxazol-3(2H)-yl)piperidine-2,6-dione], for which the figures for the half-maximal degradation concentration (DC50) in assay [1] (setting [7]) and in assay [2] (setting [9]) were 6.92 nM and 0.962 nM, respectively. Further, in assay [1] (setting [8]), the Dmax was 89.5%. In addition, the “Dmax (%) H1975 # 28 DTC” value in assay [2] (setting [5]) is on record as 83.19%.
The corresponding values for `CCc1ccc2c(P(C)(C)=O)c(Nc3nc(Nc4cc(CC)c(N5CCC(N6CCN(CC7CN(c8cc(F)cc9c8oc(=O)n9C8CCC(=O)NC8=O)C7)CC6)CC5)cc4OC)ncc3Br)ccc2n1` (stereo not shown) [Example 449, 3-(7-(3-((4-(1-(4-((5-bromo-4-((5-(dimethylphosphoryl)-2-ethylquinolin-6-yl)amino)pyrimidin-2-yl)amino)-2-ethyl-5-methoxyphenyl)piperidin-4-yl)piperazin-1-yl)methyl)azetidin-1-yl)-5-fluoro-2-oxobenzo[d]oxazol-3(2H)-yl)piperidine-2,6-dione] are 2.99 nM, 0.937 nM, 89.9% and 85.59%.
Turning to `CCc1ccc2c(P(C)(C)=O)c(Nc3nc(Nc4cc(CC)c(N5CCC(N6CCN(C(=O)C7CCN(c8cccc9c8oc(=O)n9C8CCC(=O)NC8=O)CC7)CC6)CC5)cc4OC)ncc3Br)ccc2n1` (stereo not shown) [Example 450, 3-(7-(4-(4-(1-(4-((5-bromo-4-((5-(dimethylphosphoryl)-2-ethylquinolin-6-yl)amino)pyrimidin-2-yl)amino)-2-ethyl-5-methoxyphenyl)piperidin-4-yl)piperazine-1-carbonyl)piperidin-1-yl)-2-oxobenzo[d]oxazol-3(2H)-yl)piperidine-2,6-dione], the half-maximal degradation concentration (DC50) in assay [1] (setting [3]) worked out at 2.68 nM; in assay [2] (setting [6]) it was 0.616 nM. The greatest degradation seen (Dmax) in assay [1] (setting [4]) was determined as 87.7%. Also, the “Dmax (%) H1975 # 28 DTC” value in assay [2] (setting [5]) turned out to be 77%.
Regarding `CCc1ccc2c(P(C)(C)=O)c(Nc3nc(Nc4cc(CC)c(N5CCC(N6CCN(CCc7cccc8c7n(C)c(=O)n8C7CCC(=O)NC7=O)CC6)CC5)cc4OC)ncc3Br)ccc2n1` (stereo not shown) [Example 451, 3-(4-(2-(4-(1-(4-((5-bromo-4-((5-(dimethylphosphoryl)-2-ethylquinolin-6-yl)amino)pyrimidin-2-yl)amino)-2-ethyl-5-methoxyphenyl)piperidin-4-yl)piperazin-1-yl)ethyl)-3-methyl-2-oxo-2,3-dihydro-1H-benzo[d]imidazol-1-yl)piperidine-2,6-dione], the figures for the DC50 in assay [1] (setting [7]) and in assay [2] (setting [9]) were 3.64 nM and 0.612 nM, respectively. For the same compound, the greatest degradation seen (Dmax) in assay [1] (setting [8]) came to 95.4%. For the same compound, in assay [2] (setting [5]), the “Dmax (%) H1975 # 28 DTC” value was 70.68%.
The corresponding values for `CCc1ccc2c(P(C)(C)=O)c(Nc3nc(Nc4cc(CC)c(N5CCC(N6CCN(CCc7c(F)ccc8c7n(C)c(=O)n8C7CCC(=O)NC7=O)CC6)CC5)cc4OC)ncc3Br)ccc2n1` (stereo not shown) [Example 452, 3-(4-(2-(4-(1-(4-((5-bromo-4-((5-(dimethylphosphoryl)-2-ethylquinolin-6-yl)amino)pyrimidin-2-yl)amino)-2-ethyl-5-methoxyphenyl)piperidin-4-yl)piperazin-1-yl)ethyl)-5-fluoro-3-methyl-2-oxo-2,3-dihydro-1H-benzo[d]imidazol-1-yl)piperidine-2,6-dione] are 3.96 nM, 0.863 nM, 89.7% and 78.26%.
The corresponding values for `CCc1ccc2c(P(C)(C)=O)c(Nc3nc(Nc4cc(CC)c(N5CCC(N6CCN(CCc7cccc8c7n(CC)c(=O)n8C7CCC(=O)NC7=O)CC6)CC5)cc4OC)ncc3Br)ccc2n1` (stereo not shown) [Example 453, 3-(4-(2-(4-(1-(4-((5-bromo-4-((5-(dimethylphosphoryl)-2-ethylquinolin-6-yl)amino)pyrimidin-2-yl)amino)-2-ethyl-5-methoxyphenyl)piperidin-4-yl)piperazin-1-yl)ethyl)-3-ethyl-2-oxo-2,3-dihydro-TH-benzo[d]imidazol-1-yl)piperidine-2,6-dione] are 5.7 nM, 0.704 nM, 93.1% and 77.04%.
The corresponding values for `CCc1ccc2c(P(C)(C)=O)c(Nc3nc(Nc4cc(CC)c(N5CCC(N6CCN(CCc7cccc8c7n(C7CC7)c(=O)n8C7CCC(=O)NC7=O)CC6)CC5)cc4OC)ncc3Br)ccc2n1` (stereo not shown) [Example 454, 3-(4-(2-(4-(1-(4-((5-bromo-4-((5-(dimethylphosphoryl)-2-ethylquinolin-6-yl)amino)pyrimidin-2-yl)amino)-2-ethyl-5-methoxyphenyl)piperidin-4-yl)piperazin-1-yl)ethyl)-3-cyclopropyl-2-oxo-2,3-dihydro-1H-benzo[d]imidazol-1-yl)piperidine-2,6-dione] are 5.13 nM, 0.735 nM, 92.3% and 78.41%.
For the compound `CCc1ccc2c(P(C)(C)=O)c(Nc3nc(Nc4cc(CC)c(N5CCC(N6CCN(CCCc7ccc8c(c7)oc(=O)n8C7CCC(=O)NC7=O)CC6)CC5)cc4OC)ncc3Br)ccc2n1` (stereo not shown) [Example 456, 3-(6-(3-(4-(1-(4-((5-bromo-4-((5-(dimethylphosphoryl)-2-ethylquinolin-6-yl)amino)pyrimidin-2-yl)amino)-2-ethyl-5-methoxyphenyl)piperidin-4-yl)piperazin-1-yl)propyl)-2-oxobenzo[dloxazol-3(2H)-yl)piperidine-2,6-dione], the half-maximal degradation concentration (DC50) came out at 3.56 nM in assay [1] (setting [7]) and 0.621 nM in assay [2] (setting [9]). Also, the greatest degradation seen (Dmax) in assay [1] (setting [8]) was 89.9%. In addition, the “Dmax (%) H1975 # 28 DTC” value in assay [2] (setting [5]) amounted to 71.36%.
